Experimental data: patent publication US20260207615A1, “FLUOROPYRIDOPYRIMIDINE AND FLUOROQUINAZOLINE DERIVATIES AND METHODS OF USE THEREOF” (Frontier Medicines Corporation, priority 2022, published 2026)

These compounds were tested against T1, KRAS G12C and cRAF interaction (Homo sapiens, UniProt P01116, C118S/C51S/C80L/G12C) (assay: Inhibition of KRAS G12C and cRAF binding (AlphaScreen)). Conditions: KRAS G12C (Cys-light, aa 1-169) preloaded with GMPPNP, cRaf RBD (aa 50-131), 2 hours incubation.
T1 construct: truncated version comprising amino acids 1-169
T1 sequence (P01116 1-169 isoform P01116-2 G12C/C51S/C80L/C118S): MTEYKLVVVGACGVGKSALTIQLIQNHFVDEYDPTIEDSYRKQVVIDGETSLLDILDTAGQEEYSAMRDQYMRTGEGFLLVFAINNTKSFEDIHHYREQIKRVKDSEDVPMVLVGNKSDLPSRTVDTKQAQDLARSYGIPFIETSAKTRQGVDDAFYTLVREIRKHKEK
Assay type: biochemical
Protocol: The AlphaScreen technology was used to determine IC50s for compound inhibition of KRAS G12C (present as the Cys-light (C51S, C80L and C118S), truncated version comprising amino acids 1-169) and cRAF interaction. Compounds were diluted in 100% DMSO and each compound concentration was spotted at 200 nl/well onto low volume, white 384 well plates. The KRAS G12C contained a biotin-AviTag and the cRaf, as Ras-binding domain (amino acids 50-131, RBD), was GST-tagged. KRAS G12C was preloaded with the GTP analogue Guanosine 5′-[β,γ-imido]triphosphate (GMPPNP). The KRAS G12C was diluted in 25 mM Hepes, pH 7.4, 150 mM NaCl, 5 mM MgCl2, 0.01% TritonX-100 and 10 μM GMPPNP and added at 10 μl/well to compound-spotted plates resulting in a DMSO concentration of 2%. Plates were incubated for 2 hours. A mixture of RBD and the AlphaScreen streptavidin donor and glutathione acceptor beads diluted in 25 mM Hepes, pH 7.4, 150 mM NaCl, 5 mM MgCl2, 0.01% TritonX-100 and 2% DMSO was then added at 10 μl/well and incubated for 60-90 minutes before the samples were read for emission at 570 nm after excitation of the donor beads at 680 nm. All incubations were performed at room temperature. The final top compound concentration was 50 μM with 1:3 titrations for 10-point dose response curves. Final assay conditions were 0.5 nM KRAS G12C, 0.75 nM RBD and 5 μg/ml each of AlphaScreen donor and acceptor beads. IC50S were determined using nonlinear regression fit of [inhibitor] vs. response (4 parameters).
A counter assay was also set up to rule out inhibitors of the AlphaScreen technology itself. Compound plates were incubated for 2 hours as above with buffer only.
The AlphaScreen beads were added as above except biotin-AviTag-GST was substituted for the RBD. Samples were read and analyzed as above.

SMILES	IC50 [nM]
C=CC(=O)N1CCN(c2nc(OC[C@@]34CCCN3C[C@H](F)C4)nc3c(F)c(-c4c(Cl)c(C)cc5[nH]ncc45)ncc23)CC12COC2 [Example 51, 1-(8-(7-(5-chloro-6-methyl-1H-indazol-4-yl)-8-fluoro-2-(((2R,7aS)-2-fluorotetrahydro-1H-pyrrolizin-7a(5H)-yl)methoxy)pyrido[4,3-d]pyrimidin-4-yl)-2-oxa-5,8-diazaspiro[3.5]nonan-5-yl) prop-2-en-1-one]	10 to 100
Cc1nccc(/C=C/C(=O)N2CCN(c3nc(OCC45CCCN4CCC5)nc4c(F)c(-c5cccc6cccc(Cl)c56)ncc34)CC23COC3)n1 [Example 7, (E)-1-(8-(7-(8-chloronaphthalen-1-yl)-8-fluoro-2-((tetrahydro-1H-pyrrolizin-7a(5H)-yl)methoxy)pyrido[4,3-d]pyrimidin-4-yl)-2-oxa-5,8-diazaspiro[3.5]nonan-5-yl)-3-(2-methylpyrimidin-4-yl) prop-2-en-1-one]	100 to 500
CN1CC[C@@H]1/C=C/C(=O)N1CCN(c2nc(OC[C@@]34CCCN3C[C@H](F)C4)nc3c(F)c(-c4cccc(Cl)c4C(F)(F)F)ncc23)CC12COC2 [Example 76]	≥ 500
O=C(C#CCN1CCOCC1)N1CCN(c2nc(OC[C@@]34CCCN3C[C@H](F)C4)nc3c(F)c(-c4cccc5cccc(Cl)c45)ncc23)CC12COC2 [Example 16, 1-(8-(7-(8-chloronaphthalen-1-yl)-8-fluoro-2-(((2R,7aS)-2-fluorotetrahydro-1H-pyrrolizin-7a(5H)-yl)methoxy)pyrido[4,3-d]pyrimidin-4-yl)-2-oxa-5,8-diazaspiro[3.5]nonan-5-yl)-4-morpholinobut-2-yn-1-one]	100 to 500
C=CC(=O)N1CCN(c2nc(OC[C@@]34CCCN3C[C@H](F)C4)nc3c(F)c(-c4ccc(F)c5sc(N)nc45)c(C(F)(F)F)cc23)CC12CCOC2 (stereo partly drawn) [Example 90]	10 to 100
C=CC(=O)N1CC(C)N(c2nc(OC[C@@]34CCCN3C[C@H](F)C4)nc3c(F)c(-c4cccc5cccc(Cl)c45)ncc23)CC12COC2 (stereo partly drawn) [Example 65]	10 to 100

The remaining lines, values ahead:

IC50 [nM]	SMILES
< 10	C#Cc1c(F)ccc2cccc(-c3ncc4c(N5CCN(C(=O)/C(F)=C/c6ccnc(C)n6)C6(COC6)C5)nc(OC[C@@]56CCCN5C[C@H](F)C6)nc4c3F)c12 [Example 49, (Z)-1-(8-(7-(8-ethynyl-7-fluoronaphthalen-1-yl)-8-fluoro-2-(((2R,7aS)-2-fluorotetrahydro-1H-pyrrolizin-7a(5H)-yl)methoxy)pyrido[4,3-d]pyrimidin-4-yl)-2-oxa-5,8-diazaspiro[3.5]nonan-5-yl)-2-fluoro-3-(2-methylpyrimidin-4-yl) prop-2-en-1-one]
< 10	C#Cc1c(F)ccc2cccc(-c3ncc4c(N5CCN(C(=O)/C=C/CN6C[C@H]7C[C@@H]6CO7)C6(COC6)C5)nc(OC[C@@]56CCCN5C[C@H](F)C6)nc4c3F)c12 [Example 46, (E)-4-((1R,4R)-2-oxa-5-azabicyclo[2.2.1]heptan-5-yl)-1-(8-(7-(8-ethynyl-7-fluoronaphthalen-1-yl)-8-fluoro-2-(((2R,7aS)-2-fluorotetrahydro-1H-pyrrolizin-7a(5H)-yl)methoxy)pyrido[4,3-d]pyrimidin-4-yl)-2-oxa-5,8-diazaspiro[3.5]nonan-5-yl) but-2-en-1-one]
< 10	O=C(/C=C/CN1[C@@H]2CC[C@H]1COC2)N1CCN(c2nc(OC[C@@]34CCCN3C[C@H](F)C4)nc3c(F)c(-c4cccc5ccc(F)c(F)c45)ncc23)CC12COC2 [Example 21, (E)-4-((1R,5S)-3-oxa-8-azabicyclo[3.2.1]octan-8-yl)-1-(8-(7-(7,8-difluoronaphthalen-1-yl)-8-fluoro-2-(((2R,7aS)-2-fluorotetrahydro-1H-pyrrolizin-7a(5H)-yl)methoxy)pyrido[4,3-d]pyrimidin-4-yl)-2-oxa-5,8-diazaspiro[3.5]nonan-5-yl) but-2-en-1-one]
